The values that follow come from PubChem BioAssay AID179 (DTP/NCI, 2004).

The test relates to CEM cells HIV-1 protection, formazan growth assay. The experiment in a line: NCI AIDS Antiviral Assay. Particulars: for IC50: measured here: growth of uninfected CEM cells. In short, it runs like this:
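Human CEM cells, uninfected and HIV-1-infected, exposed to five drug concentrations; growth measured by soluble formazan assay and scored as percent protection from infection, with protecting compounds retested.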

Molecules are shown by their SMILES. Calls of active or inactive are those of the source.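 The calls were made as follows: active = compounds giving half or more protection of infected cells from virus-caused growth loss, again on retest; inactive = the rest.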 Where a SMILES comes first, the peptide text is derived from it.

As for `C/C=C(\C)c1cc(OC)c(C)c2c1C(=O)Oc1c(C)c(O)c(Cl)c(/C(C)=C/C)c1O2`, the outcome was inactive.
Still for that read-out and setting: to `Nc1ccccc1N1C(=O)C(Cl)=C(Cl)C1=O` belongs “inactive”; to `COc1ccc(NC(=S)/C(=C(/[O-])c2ccc(C)cc2)[n+]2ccccc2)cc1`, “inactive”.
On the same count and under the same terms, to `Cn1c(=O)nc2n(-c3ccc(Cl)cc3)c(-c3ccccc3)c(-c3ccccc3)nc-2c1=O` belongs “inactive”.
`Cc1ccc(C)n1-c1ccccc1C1C=Cn2c(=O)oc3c(OC(C)C)c(OC(C)C)c(O)c1c32` (stereo not drawn): the EC50 was over 200 µM and the IC50 is 16.2 µM.
The matching figures for `C1Cc2nnnn2C1`: over 2290 µM and over 2290 µM.
The corresponding values for `CCCc1cc(=O)oc2c3c(c4c(c12)OC(C)(C)CC4)OC(C)[C@H](C)[C@@H]3O` (stereo partly drawn) are 14.8 µM and 15.1 µM.
The corresponding values for `CC(C)(C)C1COP(=S)(c2ccccc2)OC1` (stereo not drawn) are over 69.2 µM and over 69.2 µM.
On to `COC1(OC)C2(Cl)CCC1(Cl)C(OC(C)=O)C2` (stereo not drawn), for which the EC50 is over 200 µM and the IC50 was found to be 145 µM.
The matching figures for `CCCCCC/C=C\CCCCCCCCCc1c(O)c(OC)cc(O)c1CN(C)C`: over 200 µM and 2.4 µM.
The matching figures for `CC(C)(C)OC(=O)NCCc1ccc(N)cc1`: over 200 µM and 158 µM.
The matching figures for `O=S(=O)(O)c1ccc2c(N=NNc3ccc(NN=Nc4cccc5cc(S(=O)(=O)O)ccc45)cc3)cccc2c1`: over 759 µM and 457 µM.
As to `CCN(CC)CCCNC(=O)c1ccccc1Nc1c(Cl)cccc1Cl`, the EC50 was over 200 µM and the IC50 is 6.76 µM.
The corresponding values for `CC1(C)CC(=O)C2=C(C1)Nn1c(nnc1C(F)(F)F)S2` are over 813 µM and 355 µM.
The corresponding values for `COc1ccc2c(c1)C(=O)N1CCOC1C2C(=O)O` (stereo not drawn) are over 955 µM and over 955 µM.
The matching figures for `Cc1ccc(N=NC(=O)NNc2ccc(C)c([N+](=O)[O-])c2)cc1[N+](=O)[O-]`: over 200 µM and 63.1 µM.
Turning to `Cc1nc2c(ccc3[nH]c4ccccc4c32)s1`, the outcome was inactive.
For `CCNC(=O)OCc1cnc(C)c(O)c1COC(=O)NCC`, the EC50 is over 200 µM and the IC50 is over 200 µM.
In the case of `CCSc1ccc(/C=C(\C#N)c2ccc(OCCN(CC)CC)cc2)cc1`, the EC50 is over 100 µM and the IC50 came out at 1.2 µM.
The matching figures for `Cc1cc(=O)oc2cc(O/C(=C\c3ccc(O)cc3)c3nc4ccccc4c(=O)o3)ccc12`: over 22.9 µM and over 22.9 µM.
As to `Cc1cn(C(CO)OC(CO)CP(=O)(O)O)c(=O)[nH]c1=O` (stereo not drawn), the EC50 is over 200 µM and the 50% inhibitory concentration (IC50) was over 200 µM.
Regarding `CCOC(=O)C1Cc2c([nH]c(=O)[nH]c2=O)OC1c1ccc([N+](=O)[O-])cc1` (stereo not drawn), the EC50 was over 363 µM and the IC50 is over 363 µM.
Take `COC(=O)c1ccc(Cl)cc1NC(=O)C1CCCCC1`: the outcome was inactive.
For the compound `COC(=O)C1=C(OC(C)=O)c2ccccc2CS1`, the EC50 is over 135 µM and the IC50 is 123 µM.
The corresponding values for `CCP(=O)(CC)C(Cl)(Cl)C(O)C(Cl)(Cl)Cl` (stereo not drawn) are over 200 µM and over 200 µM.
The corresponding values for `N#C/C(=C\NC(=S)Nc1cc(Cl)ccc1Cl)C(=O)c1ccc2ccccc2c1` are over 100 µM and over 100 µM.
Regarding `C=C1C(=O)O[C@@H]2C1C(OC(C)CCC)[C@@H](O)[C@@H](C)C(O)C1O[C@]1(C)[C@H]2O` (stereo partly drawn), the result was inactive.
In the case of `O=C(CC(O)(C(F)(F)F)C(F)(F)F)C(c1ccccc1)C(O)(C(F)(F)F)C(F)(F)F` (stereo not drawn), the result was inactive.
Consider `C=C(c1nc2ccc(Cl)cc2[nH]c1=O)C(O)c1ccc(C(O)C(=O)c2nc3ccc(Cl)cc3[nH]c2=O)cc1` (stereo not drawn), for which the EC50 is over 162 µM and the IC50 was determined as 12 µM.
The matching figures for `CCOC(=O)c1sc2c(c1OC(=O)c1ccco1)c(=O)n(-c1ccccc1)c(=S)n2-c1ccccc1`: over 200 µM and 8.32 µM.
Take `Cc1ccc(S(=O)(=O)N/N=C\c2c3ccccc3[n+](C)c3ccccc23)cc1`: the result was inactive.
`N#CNC(N)=NCc1ccccc1`: the EC50 was 155 µM and the IC50 is 204 µM.
The corresponding values for `O=C(CC1Sc2ccccc2NC1=O)Nc1cc(Cl)ccc1Cl` (stereo not drawn) are over 70.8 µM and over 70.8 µM.
The matching figures for `FC(F)(F)c1nc2c(ccc3[nH]c4c(-c5ccccc5)nccc4c32)[nH]1`: over 28.2 µM and over 28.2 µM.
As for `O=c1[nH]c(=O)n(C2OC(CO)C(O)C2O)c2nccnc12` (stereo not drawn), the EC50 was over 200 µM and the IC50 was over 200 µM.
As to `CCOP(=O)(OCC)Oc1c(OC)c2[nH]c(C(=O)OC)cc2c2c(C(=O)O)c[nH]c12`, the EC50 was over 200 µM and the IC50 was over 200 µM.
For `COc1ccc(C2(OC)Oc3ccccc3C(=O)C2(O)O)cc1` (stereo not drawn), the EC50 is over 200 µM and the IC50 is 12.6 µM.
Consider `O=C(Nc1cccc(Cl)c1)C(=O)C(C(=O)c1ccc2ccccc2c1)C1OC(=O)c2ccccc21` (stereo not drawn), for which the EC50 is over 74.1 µM and the IC50 was 33.9 µM.
The matching figures for `CC1OC(OC2C(O)COC(OC3C(C)OC(OC4C(OC(=O)[C@]56CCC(C)(C)C[C@@H]5C5=CCC7[C@@]8(C)C[C@H](O)[C@H](OC9OC(CO)C(O)C(O)C9O)[C@@](C)(CO)[C@@H]8CC[C@@]7(C)[C@]5(C)CC6)OCC(O)C4O)C(O)C3OC3OCC(O)C(O)C3O)C2O)C(O)C(O)C1O` (stereo partly drawn): over 58.9 µM and 19.5 µM.
As for `Cc1cn(C2CC(N=[N+]=[N-])C(COC(=O)[C@@]3(O)CC[C@H]4[C@@H]5CCC6=CC(=O)CC[C@]6(C)[C@H]5C(O)C[C@@]43C)O2)c(=O)[nH]c1=O` (stereo partly drawn), the EC50 was 26.9 µM and the IC50 amounted to 158 µM.
The matching figures for `O=C(CP(=O)(c1ccccc1)c1ccccc1)c1cccc(C(=O)CP(=O)(c2ccccc2)c2ccccc2)c1`: over 200 µM and 158 µM.
The matching figures for `Cc1cc(S(=O)(=O)Nc2nnc3c4scc(C)c4ncn23)c(S)cc1Cl`: 45.7 µM and 50.1 µM.
The matching figures for `CC(=O)O[C@H]1CC[C@H]2[C@@H]3CCc4cc(O)c(I)cc4[C@H]3CC[C@]12C`: over 200 µM and 12 µM.
With `COC(=O)c1ccccc1C1CN=NC12Cc1cc3c(cc1C2=O)CCC3` (stereo not drawn), the outcome was inactive.
Regarding `Cc1ccc2c3c(c(C)nc2c1)C(=O)c1ccccc1-3`, the EC50 is over 10.5 µM and the IC50 was over 10.5 µM.
As for `O=C(O)CCCC[n+]1ccccc1`, the EC50 was over 200 µM and the IC50 was over 200 µM.
Consider `O=C(CCCC[P+](c1ccccc1)(c1ccccc1)c1ccccc1)c1ccccc1`, for which the EC50 is over 200 µM and the IC50 is 0.661 µM.
For `S=c1[nH]ncc(SCc2ccccc2)c1SCc1ccccc1`, the EC50 is over 200 µM and the IC50 amounted to 13.2 µM.
On to `COC(=O)C1(C(C)C)CCc2c(OC)ccc(OC)c2C1=O` (stereo not drawn), for which the result was inactive.
For `Cc1c(C2Cc3ccccc3N2C(=O)/C=C\C(=O)O)c2ccccc2n1C` (stereo not drawn), the EC50 is over 692 µM and the IC50 stood at 14.5 µM.
The matching figures for `O=C(NCCCl)Nc1ccccn1`: over 200 µM and over 200 µM.
On to `Cc1cc(C)c(-c2noc(-c3ccc(Cl)cc3)c2C2=NCCN2)c(C)c1`, for which the result was inactive.
Regarding `CN(C)CCNc1ccc2c(=O)n(CCN(C)C)c(=O)n3c4ccccc4c(=O)c1c23`, the EC50 was over 0.1 µM and the IC50 was determined as 0.00933 µM.
The corresponding values for `CCCc1[nH]c(SCCCCCCCCSc2nc(-c3ccc(F)cc3)c(CCC)[nH]2)nc1-c1ccc(F)cc1` are over 9.33 µM and over 9.33 µM.
The corresponding values for `CN(C)c1ncnc2c1ncn2C1C=CC(COS(N)(=O)=O)C1` (stereo not drawn) are over 200 µM and over 200 µM.
Take `CCCCCCCCCCCCCCCCCCOc1ccc2c(c1)-c1nc-2nc2[nH]c(nc3nc(nc4[nH]c(n1)c1cc(OCCCCCCCCCCCCCCCCCC)ccc41)-c1ccc(OCCCCCCCCCCCCCCCCCC)cc1-3)c1cc(OCCCCCCCCCCCCCCCCCC)ccc21`: the EC50 is over 8.51 µM and the IC50 was over 8.51 µM.
`COc1cc2c(cc1OC)C1c3ccccc3CCN1CC2` (stereo not drawn): the EC50 is over 200 µM and the IC50 was 93.3 µM.
The corresponding values for `CC(C)(C)[Si](C)(C)O[C@@H](C(=O)OC1C=CCCC1)[C@@H](NC(=O)c1ccccc1)c1ccccc1` (stereo partly drawn) are over 200 µM and 12.3 µM.
The corresponding values for `CCCC1(NC(=O)C(F)(F)F)CC(OC)OC2COC(c3ccccc3)OC21` (stereo not drawn) are over 200 µM and over 200 µM.
The matching figures for `COC(=O)c1c(CC(Cc2ccc3c(c2)CCCC3)C(=O)OC)ccc2c1CCCC2` (stereo not drawn): over 200 µM and 95.5 µM.
As to `CCOC(OCC)c1ccc(N(C)C)cc1.[C-]#[O+].[C-]#[O+].[C-]#[O+].[Cr]`, the EC50 was over 20 µM and the IC50 stood at 3.39 µM.
Take `CC(C)CC(NC(=O)C(Cc1ccc(O)cc1)NC(=O)C(CO)NC(=O)C(C)NC(=O)C(CCCN=C(N)N)NC(=O)C(CCC(N)=O)NC(=O)C(NC(=O)C(N)CCC(=O)O)C(C)C)C(=O)NC(CO)C(=O)NC(CCCCN)C(=O)O` (stereo not drawn) (H-EVQRASYLSK-OH; configuration not given here): the outcome was inactive.
Consider `CN(C)c1ccc(/C=C/c2cc[n+](C)c3ccccc23)cc1`, for which the EC50 is over 200 µM and the IC50 was 0.501 µM.
The corresponding values for `CC(=O)Oc1cc(OC(C)=O)c(CC=C(C)C)c(-c2cc3ccc(OC(C)=O)c(C/C=C(\C)CCC=C(C)C)c3o2)c1` are over 4.57 µM and over 4.57 µM.
Turning to `CC1(c2ccccc2)OC(=O)c2ccccc21` (stereo not drawn), the EC50 was over 200 µM and the IC50 is over 100 µM.
As to `C=CC(=O)c1ccc2c(c1)OCCOCCOCCOCCOCCO2`, the EC50 is over 676 µM and the half-inhibitory concentration (IC50) is 7.08 µM.
The corresponding values for `COC(=O)/C=C(\C)C(=O)N(C)c1ccccc1I` are over 200 µM and 123 µM.
The matching figures for `CCCNC(=O)CNC(=O)c1ccccc1SC(=O)CCCC[n+]1ccccc1`: 8.32 µM and 112 µM.
